Measurements from the supplement of paper PMC5412046.
Several values for one entry are separate records, joined by “and”; a condition that tells them apart may be missing. Equal entries are not always repeated. Structures can show the parent of a compound that is named as a salt.

What was measured:
SB.msgc-1 [1] = experiment: area under the dose-response curve of % viability (trapezoidal, 11 doses) (% viability x log10 concentration); higher = less cytotoxic; details: SB.msgc-1 (sporadic gastric cancer)
Procedure, shortened: (§1)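 Gastric cancer cells derived from hereditary or sporadic patients were treated for 48 h with compound at 11 threefold dilutions, with the top concentration recorded per compound. Viability was then read by CellTiter-Glo luminescence. Data are viability normalised to DMSO, at the highest concentration or as trapezoidal area under the curve.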

SB.mhdgc-1 [2] = experiment: as above; details: SB.mhdgc-1 (hereditary c.1380delA CDH1 gastric cancer)
Procedure, shortened: as §1

SB.msgc-1 [3] = experiment: viability at highest tested concentration (MAXR) relative to DMSO; higher = less cytotoxic; details: SB.msgc-1 (sporadic gastric cancer)
Procedure, shortened: as §1

SB.mhdgc-1 [4] = experiment: as above; details: SB.mhdgc-1 (hereditary c.1380delA CDH1 gastric cancer)
Procedure, shortened: as §1

Row | SMILES | area under the dose-response curve (SB.msgc-1 [1]) | area under the dose-response curve (SB.mhdgc-1 [2]) | viability (SB.msgc-1 [3]) [%] | viability (SB.mhdgc-1 [4])
1 | CCNC(=O)Nc1ccc(Oc2ncnc(N)c2/C=N/OC)cc1Cl (top concentration 46.0829 µM) | 481 | 534 | 53.8 | 83%
2 | COc1ccc(F)c(F)c1C(=O)c1cnc(NC2CCN([S+](C)(=O)[O-])CC2)nc1N [R-547] (top concentration 46.0829 µM) | 422 | 471 | 50.5 | 50.3%
3 | c1ccc(-c2nn3c(c2-c2ccnc4cc(OCCN5CCOCC5)ccc24)CCC3)nc1 (top concentration 46.0829 µM) | 516 | 541 | 55.1 | 51.2%
4 | C[C@]1(c2nc3c(C(N)=O)cccc3[nH]2)CCCN1 [Veliparib] (top concentration 46.0829 µM) | 447 | 404 | 69.4 | 54.2%
5 | Cc1ccc(C(=O)Nc2cccc(C(F)(F)F)c2)cc1-c1ccc2nc(NCCN3CCOCC3)ncc2c1 [AMG-47a] (top concentration 46.0829 µM) | 512 | 508 | 40 | 24.1%
6 | CN1CC(=O)N2[C@H](c3ccc4c(c3)OCO4)c3[nH]c4ccccc4c3C[C@@H]2C1=O [Tadalafil] (top concentration 46.0829 µM) | 280 | 549 | 25.6 | 107%
7 | CC1(C)OC/2=C(\[C@H](NCC3=CC=CC=C3)[C@@H]1O)C(=O)C4=CC=CC=C4C2=O (top concentration 46.0829 µM) | 348 | 419 | 1.97 | 4.38%
8 | CNC(=O)c1c(F)cccc1Nc1nc(Nc2cc3c(cc2OC)CCN3C(=O)CN(C)C)nc2[nH]ccc12 (top concentration 46.0829 µM) | 460 | 302 | 2.95 | 1.17%
9 | Cc1ccc(NC(=O)Nc2cc(C(F)(F)F)ccc2F)cc1Nc1ccc2c(c1)NC(=O)/C2=C\c1ccc[nH]1 [GNF-5837] (top concentration 46.0829 µM) | 455 | 430 | 6.76 | 1.48%
10 | CC(C)(C)c1cnc(CSc2cnc(NC(=O)C3CCNCC3)s2)o1 [SNS-032] (top concentration 46.0829 µM) | 365 | 375 | 41.1 | 43.2%
11 | C/C=C1\NC(=O)[C@H]2CSSCC/C=C\[C@H](CC(=O)N[C@H](C(C)C)C(=O)N2)OC(=O)[C@H](C(C)C)NC1=O [Romidepsin] (top concentration 46.0829 µM) | 146 | 316 | 4.4 | 35.1%
12 | C[C@@H](Cc1cc2c(c(C(N)=O)c1)N(CCCO)CC2)NCCOc1ccccc1OCC(F)(F)F [Silodosin] (top concentration 46.0829 µM) | 547 | 516 | 84.9 | 119%
13 | CN1C(=O)\C(=C/C2=C1N=C(NC3CCOCC3)N=C2)OC4=C(F)C=C(F)C=C4 [R-1487] (top concentration 46.0829 µM) | 500 | 530 | 61.9 | 81%
14 | Cc1cnc(Nc2cccc(CN3CCOCC3)c2)nc1Nc1cccc([S+](=O)([O-])NC(C)(C)C)c1 [TG-89] (top concentration 46.0829 µM) | 439 | 434 | 14.5 | 6.02%
15 | CN(C)[C@H]\1[C@@H]2[C@@H](O)[C@@H]\3C(=C)C4=C(C(=CC=C4)O)C(=O)C3=C(\O)[C@@]2(O)C(=O)\C(=C1O)C(N)=O [Methacycline hydrochloride] (top concentration 46.0829 µM) | 501 | 604 | 43.3 | 126%
16 | Cc1nc(N)ncc1-c1nc(N2CCOCC2)c2sc(C(C)(C)O)cc2n1 [GNE-490] (top concentration 46.0829 µM) | 321 | 344 | 49.4 | 14.9%
17 | CCc1cc2c(cc1N1CCC(N3CCOCC3)CC1)C(C)(C)c1[nH]c3cc(C#N)ccc3c1C2=O (top concentration 46.0829 µM) | 473 | 395 | 61.4 | 1.11%

Row | SMILES | area under the dose-response curve (SB.msgc-1 [1]) | area under the dose-response curve (SB.mhdgc-1 [2]) | viability (SB.msgc-1 [3]) [%] | viability (SB.mhdgc-1 [4])
18 | C=CC(=O)Nc1cccc(Nc2nc(NC3CCC(N(C)C)CC3)nc3c2ncn3C(C)C)c1 (stereo not drawn) (top concentration 46.0829 µM) | 344 | 163 | 49.4 | 2.91%
19 | N=C1S/C(=C\c2ccc(-c3ccc4c(c3)C(=O)NC4=O)o2)C(=O)N1c1ccc(Br)cc1 [Bioymifi] (top concentration 46.0829 µM) | 439 | 417 | 35.7 | 1.27%
20 | CC(C)OC(=O)OCOP(=O)(CO[C@H](C)Cn1cnc2c(N)ncnc21)OCOC(=O)OC(C)C.O=C(O)C=CC(=O)O [Tenofovir Disoproxil Fumarate] (top concentration 46.0829 µM) | 500 | 531 | 36.3 | 39%
21 | CNC(=O)c1ccc(N2C(=S)N(c3cnc(C#N)c(C(F)(F)F)c3)C(=O)C23CCC3)cc1F [ARN-509] (top concentration 46.0829 µM) | 317 | 297 | 0.835 | 2.3%
22 | C#CCN[C@@H]1CCc2ccccc21.CS(=O)(=O)O [Rasagiline mesilate] (top concentration 46.0829 µM) | 532 | 574 | 101 | 139%
23 | Nc1ccc(C(=O)c2cc3c(ccc4ccccc43)[nH]2)cc1 [IPFK2] (top concentration 46.0829 µM) | 431 | 506 | 27.4 | 16.9%
24 | COc1cc(C[C@@H](CO)[C@H](CO)Cc2ccc(O)c(OC)c2)ccc1O [Secoisolariciresinol] (top concentration 46.0829 µM) | 285 | 424 | 5.29 | 50.9%
25 | Cc1cc(CN2CCN(c3c(Br)cnc4[nH]c(-c5ccc(N6CCN(C)CC6)cc5)nc34)CC2)no1 (top concentration 46.0829 µM) | 517 | 440 | 3.36 | 1.37%
26 | Oc1ccc([C@@H]2Oc3ccc(O)cc3[C@@H]3CCC[C@@H]32)cc1 [Erteberel] (top concentration 46.0829 µM) | 278 | 492 | 12.8 | 16.6%
27 | C[C@H](c1ccc(F)cc1CCCC(=O)O)N(c1cc(F)ccc1F)[S+](=O)([O-])c1ccc(Cl)cc1 (top concentration 46.0829 µM) | 509 | 450 | 70.5 | 40.2%
28 | CCCc1cc(C(N)=S)ccn1 [Protionamide] (top concentration 46.0829 µM) | 522 | 480 | 127 | 150%
29 | CCN(CC)CCCC(C)Nc1nc(C)cc(Nc2ccc3nc(C)cc(N)c3c2)n1 (stereo not drawn) (top concentration 46.0829 µM) | 503 | 502 | 104 | 93.6%
30 | CC(C)OC(=O)C(C(=O)OC(C)C)=C1S\C=C/S1 [Malotilate] (top concentration 46.0829 µM) | 553 | 505 | 66.7 | 74.3%
31 | C[C@H]1CC2C3CCC/4=C/C(=O)/C=C\[C@]4(C)[C@@]3(F)[C@@H](O)C[C@]2(C)[C@@]1(O)C(=O)CO (stereo partly drawn) [Betamethasone] (top concentration 46.0829 µM) | 571 | 512 | 65.2 | 60%
32 | CCOc1cc(CC(=O)N[C@@H](CC(C)C)c2ccccc2N2CCCCC2)ccc1C(=O)O [Repaglinide] (top concentration 46.0829 µM) | 567 | 559 | 119 | 114%
33 | COc1ccc([C@@H]2CC(=O)c3c(O)cc(O[C@@H]4O[C@H](CO[C@@H]5O[C@@H](C)[C@H](O)[C@@H](O)[C@H]5O)[C@@H](O)[C@H](O)[C@H]4O)cc3O2)cc1O [Aurantiamarin] (top concentration 46.0829 µM) | 501 and 495 | 505 and 579 | – | 87.1% and 76.4%
34 | CC(C)(C)COc1ccc(-n2cc(C(=O)O)cn2)cc1C#N [Piraxostat] (top concentration 46.0829 µM) | 613 | 552 | – | –
